{"source": "patent US20030149090A1", "about": "“Compositions for the treatment of infectious diseases” (priority 2001, published 2003)", "key": {"[1]": {"biological_target": "NADPH oxidase (Homo sapiens, UniProt P04839)", "conditions": "membrane-bound phagocyte oxidase, substrate; cited from earlier work"}, "[2]": {"tested_on": "NK cells and T cells", "assay": "Flow cytometry assay of lymphocyte apoptosis induced by Hp(2-20)-activated monocytes", "assay_type": "cell-based, human", "source_text": "(§1) Peripheral blood was obtained from healthy blood donors at Sahlgren's Hospital, Göteborg, Sweden. […] See Hansson et al. 1996. […] J Immunol. 156:427.\nApoptosis was monitored by use of flow cytometry, as described elsewhere. See Mellqvist et al. 2000. […] Blood. 96:1961-8. T cells or NK cells were gated after exposure to monocytes, and the gate was set to comprise lymphocytes with a reduced forward scatter and an increased right angle scatter characteristic of apoptosis. See Hansson et al. 1996. Two additional methods were used to determine apoptosis in NK cells and T cells: analysis of DNA strand breaks by terminal deoxynucleotidyl transferase-mediated bromolated dUTP nick end labelling of DNA fragments (TUNEL assay) and Annexin V staining, as described elsewhere. See Mellqvist et al.; Hansson et al. 1999. […] J Interferon Cytokine Res. 19:1135-44.\nOne million cells were stained with appropriate fluorescein isothiocyanate (FITC)- and phycoerythrin (PE)-conjugated monoclonal antibodies (Becton & Dickinson, Stockholm, Sweden; 10 μl/10^6 cells), as described in detail elsewhere. See Hansson et al. 1999. Cells were analyzed by use of flow cytometry on a FACSort with a Lysys II software program (Becton & Dickinson). Lymphocytes were gated on the basis of forward and right angle scatter. The flow rate was adjusted to <200 cells x s^−1 and at least 5×10^3 cells were analyzed for each sample.\nAfter incubation, cells in a lymphocyte gate were assayed for morphological features of apoptosis (reduced forward and increased right angle scatter) by use of flow cytometry. In A, data are the frequency of apoptotic CD56^+ (NK; dark gray bars) or CD3ε^+ (T; open bars) after the following treatments:\nMonocytes and/or lymphocytes were prepared as described in Methods. After incubation for 16 hrs, cells in a lymphocyte gate were assayed for morphological features of apoptosis (reduced forward and increased right angle scatter) by use of flow cytometry. Data are the frequency of apoptotic lymphocytes. histamine dihydrochloride, ranitidine, and Hp(2-20) were used at 50 μM, catalase at 100 U/ml, and SOD at 50 U/ml."}, "[3]": {"tested_on": "NADPH-oxidase activity of monocytes", "assay": "NADPH-oxidase activity of monocytes, isoluminol-enhanced chemiluminescence", "assay_type": "cell-based, human", "experimental": "as §1\nNADPH-oxidase activity was determined using an isoluminol-enhanced chemiluminescence (CL) system that quantitates extracellular reactive oxygen species (ROS). See Dahlgren, C., Karlsson, A. 1999. Respiratory burst in human neutrophils. J Immunol Methods 232:3-14.\nSuperoxide anion production in elutriated monocytes was investigated by isoluminol-amplified CL (A). Cells were treated with histamine (50 μM) or the histamine H2 receptor antagonist ranitidine (50 μM)."}, "[4]": {"tested_on": "Arcanobacterium haemolyticum", "conditions": "reported in the literature; cited from earlier work"}, "[5]": {"tested_on": "S somaliensis", "conditions": "McNeil and Brown 1994; cited from earlier work"}, "[6]": {"tested_on": "Helicobacter pylori", "assay": "Treatment of ulcers caused by Helicobacter pylori, oral controlled release device", "assay_type": "in vivo", "conditions": "in combination with chemotherapeutics", "experimental": "A patient diagnosed with ulcers caused by Helicobacter pylori is treated with the compounds of the described embodiment. A controlled release mechanism is replenished with an effective dose of the ROM inhibitory compound NADPH oxidase inhibitor diphenlyeneiodonium and administered to the patient by oral intake of the device. As the device rests in the patient's stomach it simultaneously delivers the compounds of the described embodiment and decomposes in order to allow excretion from the body. The compounds of the described embodiment are administered in combination with chemotherapeutics typically administered for such an infection, such as amoxycillin, clarithromycin, tetracycline, or metronidazole."}, "[7]": {"tested_on": "Streptococcus pneumonia", "assay": "Treatment of Streptococcus pneumonia lung infection using a nebulizer", "assay_type": "in vivo", "conditions": "0.05% by weight, mist through a nebulizer", "experimental": "A subject diagnosed with Streptococcus pneumonia is treated with compounds of the described embodiment in the form of a nebulizer. The nebulizer is held firmly against the oral-nasal cavities of a patient with a respiratory infection. The nebulizer is used to deliver an aerosol mist as the patient inhales deeply. The aerosol mist contains either solely an effective amount of the preparation herein described or a mixture of the preparation and the chemotherapeutic used often administered for such an infection, such as, cephalexin. The ROM inhibitory compound NADPH oxidase inhibitor diphenlyeneiodonium in a concentration of 0.05% by weight of formulation is delivered as a mist in the patients lungs through a nebulizer."}, "[8]": {"tested_on": "diarrhea-causing pathogens (Escherichia coli, Salmonella, Shigella or the like)", "assay": "Treatment of diarrhea by oral administration of a capsule", "assay_type": "in vivo", "conditions": "capsule 0.8% by weight, three to ten per day for seven to thirty days, with chemotherapeutic", "experimental": "A subject suffering from diarrhea due to any number of pathogenic geni, speci, or strain of Escherichia coli, Proteus mirabilis, Salmonella enteritidis, Klebsiella Yersinia, Shigella, Serratia, Candida, Giardia intestinalis, Cryptosporidium, Vibrio cholera, Campylobacter, Ascaris or the like responsible for gastrointestinal distress in the form of diarrhea or the like is treated with a capsule containing the ROM inhibitory compound NADPH oxidase inhibitor diphenlyeneiodonium in a concentration of 0.8% by weight of formulation in addition to administration of the appropriate chemotherapeutic compound, such as an aminoglycoside, chloramphenicol, trimethoprimsulfa-methoxazole, doxycycline, or a fluoroquinolone. The treatment consists of oral intake of three to ten capsules per day for a period of seven to thirty days (depending the causative agent of the infection)."}, "[9]": {"tested_on": "Streptococcus mutans", "assay": "Treatment of dental carries using a toothpaste and mouthwash", "assay_type": "in vivo", "conditions": "toothpaste and mouthwash 0.05% by weight, five times per day for seven days", "experimental": "A subject suffering from dental carries due to Streptococcus mutans is treated with a toothpaste and a mouthwash containing the ROM inhibitory compound NADPH oxidase inhibitor diphenlyeneiodonium in a concentration of 0.05% by weight of formulation. The treatment consists of five tooth brushings with this toothpaste and mouthwash applications per day for a period of seven days."}, "[10]": {"tested_on": "Chlamidia trachomatis", "conditions": "ophthalmic solution 0.09% by weight, containing erythromycin, every three hours", "experimental": "A subject presenting an eye infection due to Chlamidia trachomatis is treated with the compositions of the described embodiment using an ophthalmic solution of histamine dihydrochloride at 0.09% by weight of formulation. Commercially available ophthalmic solutions are well known in the art. Additionally, the ophthalmic solution, preferably in drop form, contains erythromycin. Application of the solution to the eye occurs every three hours. A solution containing only the ROM production and release inhibiting compound is given hourly to ease the discomfort of the subject."}, "[11]": {"tested_on": "Tinea infection", "conditions": "cream, 0.08% by weight, topical four to five times a day", "from_the_text": "Treatment of the subjects consists of the topical application of the medication four to five times a day at the lesion site. When treating fungal growths, care is taken not to contaminate new areas with fungal spores."}, "[12]": {"tested_on": "microbial infections", "conditions": "0.08% by weight together with antimicrobial", "method": "The ability of the ROM production and release inhibition compounds of the described embodiment to increase the effectiveness of antimicrobials is evaluated in two groups of 10 subjects each. No subjects are suffering from active infections at the initiation of the study. Group I subjects receive the type of antimicrobial used in treating the specific infection according to the dosage given by the manufacturer. […] The healing time of the patient in each group is then monitored."}, "[13]": {"tested_on": "NADPH-oxidase activity of monocytes", "conditions": "earlier finding, Bylund et al. 2001; cited from earlier work"}, "[14]": {"conditions": "ranitidine 50 μM with histamine 50 μM"}, "[15]": {"conditions": "histamine 50 μM, catalase 100 U/ml, SOD 50 U/ml, Hp(2-20) 50 μM, 16 hrs"}}, "note": "“Also recorded” adds a separate entry of the source."}
{"compound": "NC(=O)C1=CN([C@@H]2O[C@H](COP(=O)(O)OP(=O)(O)OC[C@H]3O[C@@H](n4cnc5c(N)ncnc54)[C@H](OP(=O)(O)O)[C@@H]3O)[C@@H](O)[C@H]2O)C=CC1", "note": "[NADPH]", "values": [{"measurement": "Km", "setting": "[1]", "result": 45, "unit": "µM"}]}
{"compound": "CNC(=C[N+](=O)[O-])NCCSCc1ccc(CN(C)C)o1.Cl", "note": "[ranitidine, ranitidine hydrochloride]", "values": [{"measurement": "Effect on the histamine-induced protection of T cells and NK cells from apoptosis", "setting": "[2]; [14]", "result": "antagonized"}, {"measurement": "Effect on histamine's inhibition of Hp(2-20)-induced oxygen radical formation", "setting": "[3]; [14]", "result": "reversed the inhibition"}]}
{"compound": "O=C(N[C@H](CO)[C@H](O)c1ccc([N+](=O)[O-])cc1)C(Cl)Cl", "note": "[chloramphenicol]", "values": [{"measurement": "Susceptibility of A. haemolyticum", "setting": "[4]", "result": "uniformly susceptible"}]}
{"compound": "COc1cc(Cc2cnc(N)nc2N)cc(OC)c1OC", "note": "[trimethoprim]", "values": [{"measurement": "In vitro sensitivity of S somaliensis", "setting": "[5]", "result": "resistant"}]}
{"compound": "CC[C@H]1OC(=O)[C@H](C)[C@@H](O[C@H]2C[C@@](C)(OC)[C@@H](O)[C@H](C)O2)[C@H](C)[C@@H](O[C@@H]2O[C@H](C)C[C@H](N(C)C)[C@H]2O)[C@](C)(O)C[C@@H](C)C(=O)[C@H](C)[C@@H](O)[C@]1(C)O", "note": "[erythromycin]", "values": [{"measurement": "In vitro sensitivity of S somaliensis", "setting": "[5]", "result": "sensitive"}]}
{"compound": "NC[C@H]1O[C@H](O[C@H]2[C@H](O)[C@@H](O[C@H]3O[C@H](CO)[C@@H](O)[C@H](N)[C@H]3O)[C@H](N)C[C@@H]2N)[C@H](N)C[C@@H]1O", "note": "[tobramycin]", "values": [{"measurement": "In vitro sensitivity of S somaliensis", "setting": "[5]", "result": "sensitive"}]}
{"compound": "c1ccc2c(c1)[I+]c1ccccc1-2", "note": "[diphenlyeneiodonium]", "values": [{"measurement": "Treatment of gastrointestinal ulcers", "setting": "[6]", "result": "effective in expediting the treatment of gastrointestinal ulcers"}, {"measurement": "Recovery of a patient with pneumonia", "setting": "[7]", "result": "hastens the recovery"}, {"measurement": "Treatment of diarrhea", "setting": "[8]", "result": "effective in accelerating the treatment of diarrhea"}, {"measurement": "Treatment of dental carries", "setting": "[9]", "result": "effective in treating the dental carrier"}]}
{"compound": "Cl.Cl.NCCc1c[nH]cn1", "note": "[Histamine, Histamine dihydrochloride]", "values": [{"measurement": "Protection of NK cells and T cells from monocyte-dependent, Hp(2-20)-induced apoptosis", "setting": "[2]; dihydrochloride", "result": "resuced T cells and NK cells from apoptosis; also recorded: protected NK cells/T cells from the monocyte-induced apoptosis; also recorded: prevent the triggering of NK cell and T cell apoptosis; also recorded: protect T cells and NK cells from apoptotic cell death"}, {"measurement": "Inhibition of Hp(2-20)-induced oxygen radical formation in monocytes", "setting": "[3]; histamine 50 μM, elutriated monocytes, dihydrochloride", "result": "markedly inhibited; also recorded: reduce or inhibit"}, {"measurement": "Time period of bacterial eye infection, damage and discomfort", "setting": "[10]", "result": "reduces the time period of bacterial infection"}, {"measurement": "Healing time compared to the control group", "setting": "[11]", "result": "decrease in healing time"}, {"measurement": "Healing time with antimicrobial plus ROM inhibitory composition versus antimicrobial alone", "setting": "[12]", "result": "faster healing time"}]}
{"compound": "[H]/N=C(/N)N[C@H]1[C@H](O)[C@@H](O)[C@H](O[C@@H]2O[C@@H](C)[C@](O)(C=O)[C@H]2O[C@@H]2O[C@@H](CO)[C@H](O)[C@@H](O)[C@@H]2NC)[C@@H](N/C(N)=N\\[H])[C@@H]1O", "note": "[streptomycin]", "values": [{"measurement": "In vitro sensitivity of S somaliensis", "setting": "[5]", "result": "sensitive"}]}
{"compound": "catalase", "values": [{"measurement": "Protection of NK cells and T cells from monocyte-dependent, Hp(2-20)-induced apoptosis", "setting": "[2]; [15]", "result": "completely prevented"}]}
{"compound": "NC(=O)C1=CN([C@@H]2O[C@H](COP(=O)(O)OP(=O)(O)OC[C@H]3O[C@@H](n4cnc5c(N)ncnc54)[C@H](O)[C@@H]3O)[C@@H](O)[C@H]2O)C=CC1", "note": "[NADH]", "values": [{"measurement": "Km", "setting": "[1]", "result": 450, "unit": "µM"}]}
{"compound": "Superoxide dismutase [SOD]", "values": [{"measurement": "Protection of NK cells and T cells from monocyte-dependent, Hp(2-20)-induced apoptosis", "setting": "[2]; [15]", "result": "completely prevented"}]}
{"compound": "CC(=O)O[C@H]1C[C@@]2(C)[C@@H](C[C@@H](O)[C@H]3[C@@]4(C)CC[C@@H](O)[C@@H](C)[C@@H]4CC[C@@]32C)/C1=C(\\CCC=C(C)C)C(=O)O", "note": "[fusidic acid]", "values": [{"measurement": "In vitro sensitivity of S somaliensis", "setting": "[5]", "result": "sensitive"}, {"measurement": "Susceptibility of A. haemolyticum", "setting": "[4]", "result": "uniformly susceptible"}]}
{"compound": "AKKVFKRLEKLFSKIQNDK [Hp(2-20), cecropin-like peptide derived from Helicobacter pylori]", "values": [{"measurement": "Induction of NK cell and T cell apoptosis by monocytes treated with the peptide", "setting": "[2]; Hp(2-20) 50 μM, lymphocytes + 25% or 50% monocytes, overnight (16 hrs) incubation", "result": "induces apoptosis of T lymphocytes with CD3ε^+ phenotype and natural killer cells with CD56^+ phenotype; also recorded: triggers programmed cell death (apoptosis) of NK cells and T cells; also recorded: pronounced in NK cells as well as in CD3ε^+ T cells; also recorded: triggered NK cell and T cell death by apoptosis"}, {"measurement": "Superoxide anion formation in phagocytic cells", "setting": "[13]", "result": "potently triggers superoxide anion formation"}]}
